Experimental data from PubChem BioAssay (NCI).
Several values for one entry are separate records, joined by “and”; a condition that tells them apart may be missing. Equal entries are not always repeated.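 These data come from cells grown in 96-well plates and exposed to compound for 48 hours at five concentrations. GI50 = concentration required for 50% inhibition of growth. Definition used: TGI = concentration required for complete inhibition of growth.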

Legend:
Assay in all cases: inhibition of tumour cell growth, NCI panel, 48 h
OVCAR-5 ovarian = system: OVCAR-5 ovarian
CAKI-1 renal = system: CAKI-1 renal
SF-539 CNS = system: SF-539 CNS
SF-268 CNS = system: SF-268 CNS
HCT-116 colon = system: HCT-116 colon
HL-60(TB) leukemia = system: HL-60(TB) leukemia
A549 NSCLC = system: A549 NSCLC
MALME-3M melanoma = system: MALME-3M melanoma
MDA-MB-435 = system: MDA-MB-435
IGROV1 ovarian = system: IGROV1 ovarian

| SMILES | GI50 (OVCAR-5 ovarian) [µM] | TGI (OVCAR-5 ovarian) [µM] | GI50 (CAKI-1 renal) [µM] | TGI (CAKI-1 renal) [µM] | GI50 (SF-539 CNS) [µM] | TGI (SF-539 CNS) [µM] | GI50 (SF-268 CNS) | TGI (SF-268 CNS) [µM] | GI50 (HCT-116 colon) | TGI (HCT-116 colon) [µM] | GI50 (HL-60(TB) leukemia) [µM] | TGI (HL-60(TB) leukemia) [µM] | GI50 (A549 NSCLC) | TGI (A549 NSCLC) [µM] | GI50 (MALME-3M melanoma) [µM] | TGI (MALME-3M melanoma) [µM] | GI50 (MDA-MB-435) [µM] | TGI (MDA-MB-435) [µM] | GI50 (IGROV1 ovarian) | TGI (IGROV1 ovarian) [µM] |
| --- | --- | --- | --- | --- | --- | --- | --- | --- | --- | --- | --- | --- | --- | --- | --- | --- | --- | --- | --- | --- |
| Cn1cc(C2=C(c3cccc(Cl)c3)C(=O)NC2=O)c2ccccc21 | > 25 | > 25 | > 17 | > 25 | > 25 | > 25 | > 25 µM | > 25 | > 25 µM | > 25 | > 25 | > 25 | > 25 µM | > 25 | > 25 | > 25 | 12.6 | > 25 | 12.3 µM | > 25 |
| COC(=O)C12CC(NC(=O)c3csc([C@@H](C[C@H](C(C)C)N(C)C(=O)[C@@H](NC(=O)[C@H]4CCCCN4C)C(C)C)OC(C)=O)n3)(C1)C2 | – | > 33.3 | – | – | 0.00226 | 0.0267 | 0.00488 µM and 0.00388 µM | > 33.3 | 0.00302 µM and 0.00333 µM | > 33.3 | 0.000345 | 0.00302 | 0.0163 µM and 0.00413 µM | > 33.3 | 7.16 | > 33.3 | 0.000165 | 0.00169 | 0.00237 µM and 0.00333 µM | > 33.3 |
| COC(=O)CCCCCCCCC(=O)c1c(C)[nH]c(/C=C2\N=C(c3ccc[nH]3)C=C2OC)c1C | > 28.7 | > 100 | 26.6 | > 87.7 | > 55.1 | > 100 | > 20.6 µM | > 100 | 8.09 µM | > 56 | 2.86 | 16.6 | 5.18 µM | > 50.2 | > 22.9 | > 100 | 3.92 | > 100 | > 67.3 µM | > 100 |
| CCN(CC)CCn1nc2c3c(cccc3c1=O)-c1ccccc1-2 | 2.3 | > 50 | 1.39 | > 50 | 2.78 | 11.7 | 2.87 µM | 21.3 | 1.78 µM | > 50 | 1.8 | 9.22 | 1.05 µM | 19.8 | 1.67 | 7.37 | 2.96 | 10.5 | 2.06 µM | > 50 |
| C=C1C(=O)O[C@H]2[C@H]1CC/C(COC(=O)c1ccc(Br)cc1)=C\CC[C@@]1(C)O[C@@H]21 | 1.68 | 3.62 | – | – | 1.5 | 2.88 | 1.55 µM | 3.14 | 0.415 µM | 1.58 | 0.664 | 3.37 | 1.96 µM | 4.56 | – | – | 1.79 | 3.5 | 1.27 µM | 2.83 |
| CCCCOc1nc2ccccc2cc1C1CNC(=O)c2ccccc2N1 (stereo not given) | 5.4 | 31.4 | 3.11 | 23.6 | 2.3 | 6.86 | 4.24 µM | > 48.5 | 1.92 µM | 5.47 | 0.357 | 1.9 | 4.25 µM | 15.9 | 5.82 | 38.4 | 0.546 | 1.82 | 4.63 µM | 22.9 |
| NS(=O)(=O)c1ccc(N=Nc2cc3ccccc3c(C(=O)O)c2O)cc1 | – | > 94.5 | – | > 100 | – | > 100 | – | > 85.6 | – | > 100 | – | > 100 | – | > 100 | – | > 82 | – | > 100 | – | > 100 |
| Cn1cc(C2=C(c3cn(C)c4cc(Cl)ccc34)C(=O)NC2=O)c2ccccc21 | 0.157 | > 25 | – | – | 0.0556 | 0.141 | 0.18 µM | > 15.1 | 0.113 µM | > 20.6 | 0.0814 | 0.241 | 0.115 µM | > 25 | 0.0878 | 6.99 | 0.0475 | 0.12 | 0.24 µM | > 13.2 |
| O=C(c1nc2ccccc2[nH]1)C1C(c2cccc([N+](=O)[O-])c2)C2CC3CCCCC3N2[C@@]12C(=O)Nc1cc(Cl)ccc12 (stereo not given in full) | 1.48 | 3.11 | 1.43 | 3.94 | 1.69 | 3.19 | 2.11 µM | 5.43 | – | – | 2.58 | 6.67 | 2.34 µM | 6.88 | 1.42 | 2.96 | 1.65 | 3.19 | 1.54 µM | 3.69 |
| Cc1c(-c2ccnc(N)n2)c2c(n1-c1ccccc1)C(=O)c1ccccc1C2=O | 23.4 | 97.5 | 17 | 62.6 | – | – | – | – | 14.3 µM | > 100 | 7.83 | 30.4 | 36.1 µM | > 100 | – | – | 25.2 | 67.3 | 4.86 µM | 39 |
| O=C(N/N=C\c1cc(Br)cc(Br)c1O)N/N=C/c1cc(Br)cc(Br)c1O | 10.6 | 27.6 | 3.29 | 15.9 | 1.73 | 11 | 1.47 µM | 12 | 5.96 µM | 22.3 | 1.28 | 4.76 | 3.74 µM | 14.6 | 11.5 | 31.3 | 2.67 | 17.8 | – | – |
| COc1ccc(OC)c(/C=C/C(=O)c2ccc(SC)cc2)c1 | 18.3 | 36.4 | 2.39 | 18.5 | 2.55 | 6.99 | 2.58 µM | 7.46 | 2.57 µM | 7.77 | 3.65 | 12.6 | 28.9 µM | > 100 | – | – | 2.09 | 8.91 | 11 µM | 27.1 |
| Clc1cc(-c2csc(Cl)c2)cs1 | – | > 100 | – | > 100 | – | > 100 | – | > 100 | – | > 100 | – | > 100 | – | > 100 | – | – | – | > 100 | – | > 100 |
| CO[C@H]1/C=C/C=C/C=C/C[C@H](OC(=O)[C@@H](C)NC(=O)C2CCCCC2)[C@H](C)[C@@H](O)/C(C)=C\CCC2=CC(=O)C=C(NC(=O)C1)C2=O | 0.324 | 2.89 | – | – | 0.128 | 0.519 | 0.123 µM | 1.01 | 0.0472 µM | 0.738 | 0.167 | 0.839 | 0.188 µM | 1.92 | 0.113 | 0.801 | 0.154 | 0.989 | 0.0941 µM | 1.28 |
| Clc1ccc2c(NCCNc3nc(Cl)nc4ccccc34)ccnc2c1 | 1.62 | 3.09 | – | – | 1.6 | 3.12 | 1.89 µM | 3.84 | 0.218 µM | 0.531 | 0.231 | 0.656 | 1.4 µM | 3.04 | 1.76 | 3.47 | 1.47 | 2.95 | 1.13 µM | 2.7 |
| N#CCCCCCn1c2ccccc2c2c3c(c4c5ccccc5[nH]c4c21)C(=O)N(O)C3=O | – | – | 1.85 | 4.01 | 0.632 | 2.05 | 0.957 µM | 48.1 | 0.894 µM | 2.37 | 1.48 | 3.5 | 2.78 µM | 8.12 | 1.96 | 5.01 | 1.19 | 3.09 | 1.12 µM | 3.89 |
| O=C(CN1CCN(c2cc3c(cc2F)c(=O)c(C(=O)O)cn3C2CC2)CC1)Nc1ccc(C(=O)/C=C/c2ccccc2)cc1 | 5.35 | > 100 | 1.76 | 5.32 | 3.6 | > 100 | 4.13 µM | > 100 | 0.659 µM | 2.68 | 9.44 | > 100 | – | – | 2.89 | 8.87 | 2.94 | > 100 | 3.67 µM | > 100 |
| CCN1CCN(c2nc(NNC(=O)c3cccc(OC)c3)nc(N3CCN(C(c4ccccc4)c4ccccc4)CC3)n2)CC1 | 2.83 | 9.97 | 1.54 | 3.1 | 1.65 | 3 | 1.95 µM | 4.2 | 1.61 µM | 3.22 | – | – | 3.05 µM | > 100 | 1.52 | 2.94 | 1.7 | 3.19 | 1.89 µM | 4.34 |
| N#CSc1cc(-c2nc3ccccc3o2)ccc1N | 25.2 | 76.6 | 25.5 | 61.9 | 22.4 | 45.3 | 22.6 µM | 83.4 | 26.5 µM | > 100 | 0.195 | 0.552 | 2.42 µM | > 53 | – | – | 24 | 64.1 | 27.2 µM | > 70.1 |
| N#CC(N)(C(=O)C(=O)NCCCNC(=O)C(=O)C(N)(C#N)c1ccc(Cl)cc1)c1ccc(Cl)cc1 (stereo not given) | – | > 100 | – | > 100 | – | > 100 | – | > 100 | – | > 100 | – | > 100 | – | > 100 | – | > 100 | – | – | – | > 100 |
